{
  "source": "patent US20190004043A1",
  "about": "(priority 2015, published 2019)",
  "format_in_all_cases": "binding",
  "key": {"[1]": {"target": "T1, Torpedo nicotinic Acetylcholine Receptor (Tetronarce californica, UniProt P02710+P02714+P02718)", "T1 sequence (P02718 22-522)": "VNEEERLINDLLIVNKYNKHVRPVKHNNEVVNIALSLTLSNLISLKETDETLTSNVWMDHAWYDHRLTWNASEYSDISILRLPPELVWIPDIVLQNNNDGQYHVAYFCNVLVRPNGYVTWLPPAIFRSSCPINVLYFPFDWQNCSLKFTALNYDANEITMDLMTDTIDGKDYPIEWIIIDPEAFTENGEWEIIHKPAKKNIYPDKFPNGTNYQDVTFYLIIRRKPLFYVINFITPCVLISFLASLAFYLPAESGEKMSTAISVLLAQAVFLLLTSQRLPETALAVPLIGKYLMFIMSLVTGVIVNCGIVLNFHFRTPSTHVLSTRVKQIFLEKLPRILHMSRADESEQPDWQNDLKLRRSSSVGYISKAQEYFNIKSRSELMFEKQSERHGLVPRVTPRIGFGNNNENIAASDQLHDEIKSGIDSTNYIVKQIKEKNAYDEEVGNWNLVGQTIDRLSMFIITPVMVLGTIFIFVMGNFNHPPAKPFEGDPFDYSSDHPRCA", "T1 sequence (P02714 18-506)": "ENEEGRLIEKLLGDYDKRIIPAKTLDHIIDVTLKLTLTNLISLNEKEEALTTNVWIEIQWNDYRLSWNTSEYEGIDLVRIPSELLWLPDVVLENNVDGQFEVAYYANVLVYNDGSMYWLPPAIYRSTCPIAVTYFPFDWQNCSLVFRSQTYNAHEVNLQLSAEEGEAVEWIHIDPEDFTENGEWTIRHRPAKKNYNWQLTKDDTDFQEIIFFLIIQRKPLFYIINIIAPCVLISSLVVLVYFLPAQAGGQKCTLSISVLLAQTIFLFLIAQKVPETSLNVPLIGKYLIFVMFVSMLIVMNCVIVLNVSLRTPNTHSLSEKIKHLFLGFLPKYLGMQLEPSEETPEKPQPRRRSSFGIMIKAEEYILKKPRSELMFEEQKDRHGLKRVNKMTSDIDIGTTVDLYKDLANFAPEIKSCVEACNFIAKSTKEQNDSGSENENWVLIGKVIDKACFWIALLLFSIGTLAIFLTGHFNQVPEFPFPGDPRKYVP", "T1 sequence (P02712 25-493, further chain)": "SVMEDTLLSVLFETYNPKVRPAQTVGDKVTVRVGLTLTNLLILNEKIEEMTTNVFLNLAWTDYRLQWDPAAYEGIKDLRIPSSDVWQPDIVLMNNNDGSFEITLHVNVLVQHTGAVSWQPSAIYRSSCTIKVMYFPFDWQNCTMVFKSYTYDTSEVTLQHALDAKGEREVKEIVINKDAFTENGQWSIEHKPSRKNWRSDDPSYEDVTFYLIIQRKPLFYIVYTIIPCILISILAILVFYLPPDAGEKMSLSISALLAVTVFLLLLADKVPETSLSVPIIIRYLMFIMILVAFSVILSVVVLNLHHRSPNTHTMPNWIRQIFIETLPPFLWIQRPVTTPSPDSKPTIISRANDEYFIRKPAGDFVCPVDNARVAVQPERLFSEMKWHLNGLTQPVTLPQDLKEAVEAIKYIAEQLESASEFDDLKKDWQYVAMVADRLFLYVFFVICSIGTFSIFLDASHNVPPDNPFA", "T1 sequence (P02710 25-461)": "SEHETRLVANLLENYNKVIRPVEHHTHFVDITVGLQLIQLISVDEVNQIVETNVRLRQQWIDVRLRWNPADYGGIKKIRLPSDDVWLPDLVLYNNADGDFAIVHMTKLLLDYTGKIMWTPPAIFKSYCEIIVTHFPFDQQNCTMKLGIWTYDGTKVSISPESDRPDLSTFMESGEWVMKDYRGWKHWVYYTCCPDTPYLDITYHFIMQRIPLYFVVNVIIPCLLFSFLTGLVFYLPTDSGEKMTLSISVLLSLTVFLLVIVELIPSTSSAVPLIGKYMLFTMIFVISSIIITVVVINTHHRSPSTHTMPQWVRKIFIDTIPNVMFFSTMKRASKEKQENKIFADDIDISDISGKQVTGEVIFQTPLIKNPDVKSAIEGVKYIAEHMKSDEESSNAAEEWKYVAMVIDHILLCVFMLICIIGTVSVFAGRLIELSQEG", "assay": "Lateral flow test with two test lines: dose-response competition with biotinylated toxin tracer", "conditions": "for coloration of the two test lines / inhibition of labelled ligand binding: toxin 0.01 to 1 μM", "experimental": "The device used was a device manufactured according to above example 1, with the exception that two test lines were used instead of one test line and one control line. The control line is used to control if the strip test works properly. We controlled that all the lateral flow test devices were working well and we carried out several tests without toxins that we took as control (Ctrl) that the device was working as expected (FIG. 4).\nIn the present example several experiments were carried out using different toxins at different concentrations. Through the format two test lines, we tested the potency of the toxins at a given concentration.\nIn particular, different doses of the snake toxin a-bungarotoxin were tested between 0.01 to 10 μM (FIG. 4A). For that purpose, 1 mL of α-bungarotoxin at a concentration of 10 μM was prepared from the commercial a-bungarotoxin (Sigma; 250 μM) using TBS-BSA buffer (150 mM NaCl, 50 mM Tris-HCl, 0.5% BSA, pH 7.5). Successively, 1 mL of 1 μM α-bungarotoxin was prepared by diluting 10-times the previous concentrated solution using TBS-BSA buffer. Serial 10-times dilutions were performed as described to obtain the 0.1 and 0.01 μM α-bungarotoxin solutions using TBS-BSA buffer.\nDifferent doses of the dinoflagellate toxin pinnatoxin-G ranging from 0.01 to 100 μM were also tested (FIG. 4B). For that purpose, 1 mL of pinnatoxin-G at a concentration of 100 μM was prepared from the synthetic pinnatoxin-G stock (A. Zakarian; 2 mM) using TBS-BSA buffer (150 mM NaCl, 50 mM Tris-HCl, 0.5% BSA, pH 7.5). Successively, 1 mL of 50 μM pinnatoxin-G was prepared by diluting 2-times the previous concentrated solution using TBS-BSA buffer. A solution of 1 μM pinnatoxin-G was obtained by diluting 50-times the previous 50 μM pinnatoxin-G solution using TBS-BSA buffer. Serial 10-times dilutions were performed as described to obtain the 0.1 and 0.01 μM pinnatoxin-G solutions using TBS-BSA buffer.\nFinally, different doses of the dinoflagellate toxin 13,19-didesmethyl-spirolide C ranging from 0.01 to 10 μM were also tested. For that purpose, 1 mL of 13,19-didesmethyl-spirolide C at a concentration of 10 μM was prepared from the concentrated 13,19-didesmethyl-spirolide C stock (CIFGA; 100 μM) using TBS-BSA buffer (150 mM NaCl, 50 mM Tris-HCl, 0.5% BSA, pH 7.5). Successively, 1 mL of 1 μM 13,19-didesmethyl-spirolide C was prepared by diluting 10-times the previous concentrated solution using TBS-BSA buffer. Serial 10-times dilutions were performed as described to obtain the 0.1 and 0.01 μM 13,19-didesmethyl-spirolide C solutions using TBS-BSA buffer.\nThe competition experiments were carried out as disclosed in above example 2."}, "[2]": {"target": "T1, Torpedo nicotinic Acetylcholine Receptor"}, "[3]": {"target": "T1, Torpedo nicotinic Acetylcholine Receptor", "assay": "Lateral flow test with two test lines: dose-response competition with biotinylated toxin tracer", "conditions": "lower concentrations (0.001 to 1 μM)"}},
  "note": "“Also recorded” adds a separate entry of the source. Like-named read-outs stand apart in the source and are kept apart here.",
  "data": [
    {"compound": "C=C1CCCC2=NCC(C)C(C)CC23CCC(C2C=C(C)C(=O)O2)=C(C)C3/C=C(\\C)C(O)CC2CCC3(CCC4(OC(CCC4O)C1)O3)O2", "note": "(centres unmarked) [13,19-didesmethyl-spirolide C]", "values": [
      {"measurement": "inhibition of binding of the biotinylated toxin tracer", "setting": "[1]; all concentrations, 0.01 to 10 μM", "result": "inhibited the binding of the biotinylated toxin tracer at all concentration"},
      {"measurement": "inhibition of binding of the labelled ligand (test lines colorless)", "setting": "[1]; toxin 1 μM", "result": 100, "unit": "%"},
      {"measurement": "inhibition of binding of the labelled ligand (test lines colorless)", "setting": "[1]; toxin 10 μM", "result": 100, "unit": "%"},
      {"measurement": "coloration of the two test lines / inhibition of labelled ligand binding", "setting": "[1]", "result": "strong inhibition"}
    ]},
    {"compound": "C=C1CCCC2=NCC(C)C(C)CC23CCC(C2C=C(C)C(=O)O2)=C(C)C3/C=C(/C)C(O)CC2CCC3(CCC4(OC(CCC4(C)O)C1)O3)O2", "note": "(centres unmarked) [13-desmethyl-spirolide C]", "values": [
      {"measurement": "coloration of test line versus control line / inhibition of tracer binding", "setting": "[2]", "result": "a colorless or a less-colored band in the test zone; also recorded: inhibits the binding of the tracer"}
    ]},
    {"compound": "α-bungarotoxin", "values": [
      {"measurement": "coloration of the two test lines / binding of labelled tracer", "setting": "[1]", "result": "inhibited the binding of the labelled tracer in both test lines"},
      {"measurement": "coloration of the two test lines versus control test", "setting": "[1]", "result": "both test lines are colored showing, however, a less intensity than in the control test"},
      {"measurement": "inhibition of binding of the labelled ligand (test lines colorless)", "setting": "[1]", "result": 100, "unit": "%"}
    ]},
    {"compound": "C=CC1=C[C@@H]2[C@@H]3O[C@]4(C[C@H]5CCC[C@@]6(CC[C@@]7(O[C@@H](CC[C@@]7(C)O)CC(=C)CCCC7=NC[C@H](C)[C@@H](C)C[C@@]72CC1)O6)O5)C[C@@H](C)[C@@H](O)[C@H]3O4", "note": "[pinnatoxin-G]", "values": [
      {"measurement": "coloration of the two test lines versus control strip", "setting": "[1]; toxin 50 μM", "result": "both test lines were colorless"},
      {"measurement": "inhibition of binding of the labelled ligand (test lines colorless)", "setting": "[1]; toxin 50 μM", "result": 100, "unit": "%"},
      {"measurement": "coloration of the two test lines versus control strip", "setting": "[1]; toxin 100 μM", "result": "both test lines were colorless"},
      {"measurement": "inhibition of binding of the labelled ligand (test lines colorless)", "setting": "[1]; toxin 100 μM", "result": 100, "unit": "%"},
      {"measurement": "coloration of the two test lines / inhibition of labelled ligand binding", "setting": "[1]", "result": "only the second test line was colored with a lower intensity than was shown by the control strip"},
      {"measurement": "coloration of the two test lines versus control test", "setting": "[3]", "result": "only the upper test line was colored but to a less intensity than in the control test"}
    ]}
  ]
}
